From US7303618B1, “Ink for ink-jet recording” (Brother Kogyo Kabushiki Kaisha, priority 2006, dated 2007)

Test: Ozone resistance (OD value reduction of printed patch)
Assay type: physicochemical
Settings: discussion of Table 1
Text: Each of the inks for ink-jet recording was filled into a desired ink cartridge, and the ink cartridge was attached to a digital multifunction device equipped with an ink-jet printer (DCP-110C, product of Brother Industries, Ltd.) to perform the printing evaluation. First, as an evaluation sample, a gradation sample of each cyan ink was printed on photo glossy paper (Model No. BP60GLA, product of Brother Industries, Ltd.) to prepare a patch having an initial OD value of 1.0. This patch was then subjected to an ozone resistance evaluation test using an Ozone Weather Meter OMS-H (product of Suga Test Instruments Co., Ltd.). That is, the patch was left to stand under the conditions of an ozone concentration of 1 ppm, a chamber temperature of 24° C. and a chamber humidity of 60% RH for 40 hours. Specifically, the color patch printed with each cyan ink and having an OD value of 1.0 before the test was then measured for an OD value after the ozone resistance evaluation test was completed. The OD value was measured by means of a Spectrolino (product of Gretag Macbeth) (light source: D65; viewing angle: 2°; Status A). […]
The obtained OD value reduction ratio was then evaluated according to the criteria below. When the OD value reduction ratio is less than 30%, the ozone resistance performance for general use is determined to be at an acceptable level. […]

Q: Which “Ozone resistance (in words)” value does the source give for C. I. Direct Blue 199 [Dye (2-C)] here?
A: The value was “poor”.
